# Data published in US20090087845A1, “Genetic Markers Of True Low Birth Weight” (priority 2005, published 2009).
# System: placental gene expression
# [1] = rat placenta, 0, 5%, 10% in drinking water
# [2] = rat placenta, 5% in drinking water throughout pregnancy
# [3] = rat placenta, 5% or 10% in drinking water throughout pregnancy, p<0.05 in both t-tests
# [4] = rat placenta, 10% in drinking water throughout pregnancy
smiles,measurement,setting,value
CCO [alcohol],"Mean 10%, Pex6 (1368264_at)","10% alcohol group, Mean Contr 6.259265",5.303
same,"Mean 10%, St3gal3 (1373607_at)","10% alcohol group, Mean Contr 6.298338",5.59
same,"Mean 10%, Kbtbd4_predicted (1374614_at)","10% alcohol group, Mean Contr 6.314496",5.325
same,"Mean 10%, Phyh (1393245_at)","10% alcohol group, Mean Contr 6.483711",5.227
same,"Mean 10%, LOC287533 (1373627_at)","10% alcohol group, Mean Contr 6.526312",5.351
same,"Mean 10%, Transcribed locus (1388465_at)","10% alcohol group, Mean Contr 6.549543",5.667
same,"Mean 10%, Mss4 (1376745_at)","10% alcohol group, Mean Contr 6.629539",5.49
same,"Mean 10%, Plag1 (1391714_at)","10% alcohol group, Mean Contr 6.670053",5.554
same,"Mean 10%, Sumf1_predicted (1389833_at)","10% alcohol group, Mean Contr 6.839621",5.774
same,"Mean 10%, Polr3e_predicted (1374415_at)","10% alcohol group, Mean Contr 6.849002",5.78
same,"Mean 10%, RGD1308959 (1399108_at)","10% alcohol group, Mean Contr 6.859582",5.829
same,"Mean 10%, Wig1 (1387021_at)","10% alcohol group, Mean Contr 6.895168",5.95
same,"Mean 10%, probe set 1379314_at","10% alcohol group, Mean Contr 6.970231",5.514
same,"Mean 10%, Ddx59 (1383635_at)","10% alcohol group, Mean Contr 6.981191",6.018
same,"Mean 10%, Rnd3 (1394077_at)","10% alcohol group, Mean Contr 7.018906",6.069
same,"Mean 10%, probe set 1393037_at","10% alcohol group, Mean Contr 7.020197",6.384
same,"Mean 10%, Slc39a4_predicted (1374366_at)","10% alcohol group, Mean Contr 7.252498",5.652
same,"Mean 10%, RGD1305243_predicted (1374076_at)","10% alcohol group, Mean Contr 7.300542",6.175
same,"Mean 10%, Transcribed locus (1393310_at)","10% alcohol group, Mean Contr 7.364799",5.834
same,"Mean 10%, Gusb (1367901_at)","10% alcohol group, Mean Contr 7.420203",6.432
same,"Mean 10%, probe set 1392953_at","10% alcohol group, Mean Contr 7.435411",6.103
same,"Mean 10%, Crsp9_predicted (1377263_at)","10% alcohol group, Mean Contr 7.471023",5.974
same,"Mean 10%, probe set 1389582_at","10% alcohol group, Mean Contr 7.588214",6.297
same,"Mean 10%, Transcribed locus (1393226_at)","10% alcohol group, Mean Contr 7.705027",6.077
same,"Mean 10%, RGD1565289_predicted (1375297_at)","10% alcohol group, Mean Contr 7.731478",6.615
same,"Mean 10%, Zfp207 (1394591_at)","10% alcohol group, Mean Contr 8.125942",6.769
same,"Mean 10%, Akr7a2 (1367843_at)","10% alcohol group, Mean Contr 8.276972",6.866
same,"Mean 10%, Tparl (1373392_at)","10% alcohol group, Mean Contr 8.308305",7.589
same,"Mean 10%, Mcts1 (1388660_at)","10% alcohol group, Mean Contr 8.623529",7.771
same,"Mean 10%, Hadhsc (1370237_at)","10% alcohol group, Mean Contr 8.793343",8.015
same,"Mean 10%, Asah1 (1374770_at)","10% alcohol group, Mean Contr 9.074708",7.952
same,"Mean 10%, Arts1 (1368356_a_at)","10% alcohol group, Mean Contr 9.55972",8.725
same,"Mean 10%, Ndufb5_predicted (1388304_at)","10% alcohol group, Mean Contr 10.12286",9.267
same,"Mean 10%, MGC72992 (1389325_at)","10% alcohol group, Mean Contr 10.24563",9.571
same,"Mean 10%, Vps35_mapped (1372806_at)","10% alcohol group, Mean Contr 10.46183",9.969
same,"sig down and spec alc, Arts1 (1368356_a_at)",contr vs 5% vs 10% alcohol,YES
same,"sig down and spec alc, Cdca7 (1374540_at)",contr vs 5% vs 10% alcohol,YES
same,"sig down and spec alc, Centa2 (1369725_at)",contr vs 5% vs 10% alcohol,YES
same,"sig down and spec alc, Crsp9_predicted (1377263_at)",contr vs 5% vs 10% alcohol,YES
same,"sig down and spec alc, Cul2_predicted (1378127_at)",contr vs 5% vs 10% alcohol,YES
same,"sig down and spec alc, Ddx59 (1383635_at)",contr vs 5% vs 10% alcohol,YES
same,"sig down and spec alc, Ggps1 (1377866_a_at)",contr vs 5% vs 10% alcohol,YES
same,"sig down and spec alc, Gusb (1367901_at)",contr vs 5% vs 10% alcohol,YES
same,"sig down and spec alc, Hadhsc (1370237_at)",contr vs 5% vs 10% alcohol,YES
same,"sig down and spec alc, Mcpt6 (1387334_at)",contr vs 5% vs 10% alcohol,YES
same,"sig down and spec alc, Ndufb5_predicted (1388304_at)",contr vs 5% vs 10% alcohol,YES
same,"sig down and spec alc, Pex6 (1368264_at)",contr vs 5% vs 10% alcohol,YES
same,"sig down and spec alc, Prdm2_mapped (1381229_at)",contr vs 5% vs 10% alcohol,YES
same,"sig down and spec alc, RGD1305243_predicted (1374076_at)",contr vs 5% vs 10% alcohol,YES
same,"sig down and spec alc, RGD1565289_predicted (1375297_at)",contr vs 5% vs 10% alcohol,YES
same,"sig down and spec alc, Tparl (1373392_at)",contr vs 5% vs 10% alcohol,YES
same,"sig down and spec alc, Transcribed locus (1377021_at)",contr vs 5% vs 10% alcohol,YES
same,"sig down and spec alc, Trp53rk_predicted (1379488_at)",contr vs 5% vs 10% alcohol,YES
same,"sig down and spec alc, Vps35_mapped (1372806_at)",contr vs 5% vs 10% alcohol,YES
same,"number of placental genes down-regulated after excluding genes overlapping with caloric restriction, high fat diet and SSRI",rat placenta,35 genes
same,"number of placental genes up-regulated after excluding genes overlapping with caloric restriction, high fat diet and SSRI",rat placenta,7 genes
same,placental expression of TP53 regulating kinase (Trp53rk),[1],down-regulated
same,placental expression of Zinc finger protein 365 (Zfp365),[1],up-regulated
same,placental expression of cell division cycle associated 7 (Cdca7),[1],down-regulated
same,placental expression of inositol polyphosphate-1-phosphatase (Inpp1),[1],down-regulated
same,placental expression of peroxisomal biogenesis factor 6 (Pex6),[1],down-regulated
same,placental expression of pleckstrin (Plek),[1],down-regulated
same,"Mean 5% expression, probe set 1370527_a_at (casein kinase 1, delta, Csnk1d)",[2],9.839
same,"Mean 5% expression, probe set 1380351_at",[2],4.282
same,"Mean 5% expression, probe set 1381613_at (Transcribed locus)",[2],4.29
same,"Mean 5% expression, probe set 1384272_at (Zinc finger protein 365, Zfp365)",[2],4.227
same,"Mean 5% expression, probe set 1384691_at (Transcribed locus, weakly similar to XP_577161.1)",[2],4.65
same,"Mean 5% expression, probe set 1384793_at",[2],4.485
same,"Mean 5% expression, probe set 1388932_at (laminin, alpha 5, Lama5)",[2],9.683
same,"Mean 5% expression, probe set 1391879_at (Transcribed locus)",[2],4.547
same,number of probe sets up-regulated (0<5%<10% pattern),[3],8 probe sets
same,number of probe sets with reduced expression in exposed animals (0>5%>10% pattern),[3],57 probe sets
same,"Mean 10% expression, probe set 1370527_a_at (casein kinase 1, delta, Csnk1d)",[4],10.03
same,"Mean 10% expression, probe set 1380351_at",[4],4.908
same,"Mean 10% expression, probe set 1381613_at (Transcribed locus)",[4],4.634
same,"Mean 10% expression, probe set 1384272_at (Zinc finger protein 365, Zfp365)",[4],4.517
same,"Mean 10% expression, probe set 1384691_at (Transcribed locus, weakly similar to XP_577161.1)",[4],5.112
same,"Mean 10% expression, probe set 1384793_at",[4],4.761
same,"Mean 10% expression, probe set 1388932_at (laminin, alpha 5, Lama5)",[4],9.897
same,"Mean 10% expression, probe set 1391879_at (Transcribed locus)",[4],4.937
